The results in this text go back to patent US10464947B2 (Incyte Corporation, priority 2013, dated 2019).

Structures are written as SMILES. Where a name gives a salt, the structure may show the parent alone. Read-outs that look alike come from different tables or passages of the source.

One experiment deals with C-myc in KMS.12.BM cells. Kind of experiment: KMS.12.BM C-Myc ELISA Assay (Example C1). It is filed as cell-based. To be noted: Homo sapiens, 2 h. The protocol:
KMS.12.BM C-Myc ELISA Assay
KMS.12.BM cell line (human myeloma) was purchased from JCRB (Osaka, Japan) and maintained in RPMI with 10% FBS culture medium. To measure the C-myc inhibitory activity of the compounds, the KMS.12.BM cells are plated in the RPMI culture medium at 75000 cells/well/per 200 μL into a 96-well flat bottom polystyrene tissue culture plate (Corning through VWR, NJ), in the presence or absence of a concentration range of test compounds. After 2 h, cells are pelleted and lysed with Cell Extraction Buffer (BioSource, Carlsbad, Calif.) in the presence of protease inhibitors (Life Technologies, Grand Island, N.Y. and Sigma, St Louis, Mo.). Clarified lyses are tested in a C-myc commercial ELISA (Life Technologies, Grand Island, N.Y.).

Another experiment deals with KMS.12.BM cells. Description: KMS.12.BM Cell Viability Assay (Example B1). To be noted: Homo sapiens, 72 h, 3 days, Cell Titer-GLO, read-out: KMS cellular IC50. The class given is cell-based, human. The method, boiled down:
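KMS.12.BM human myeloma cells, 5000 cells/well in RPMI with 10% FBS, exposed to a compound concentration range for 3 days. Viable cells measured by ATP-based Cell Titer-GLO luminescence after 10 min at room temperature.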
In general terms: Cellular ATP, detected with luciferase, serves as a proxy for viable cell number.

For `Cc1noc(C)c1-c1ccc2nc(NC(C)C)n3c2c1OCC3c1ccccc1` (centres unmarked) [Example 25, 7-(3,5-Dimethylisoxazol-4-yl)-N-isopropyl-4-phenyl-4,5-dihydroimidazo[1,5,4-de][1,4]benzoxazin-2-amine], the IC50 with C-myc in KMS.12.BM cells and in the experiment on KMS.12.BM cells was less than 1000 nM each time.

In the case of `CC(=O)N1CCC(c2nc3ccc(-c4c(C)noc4C)c4c3n2[C@@H](c2ccccn2)CO4)CC1` [Example 109, (4S)-2-(1-Acetylpiperidin-4-yl)-7-(3,5-dimethylisoxazol-4-yl)-4-pyridin-2-yl-4,5-dihydroimidazo[1,5,4-de][1,4]benzoxazine], the IC50 with C-myc in KMS.12.BM cells and in the experiment on KMS.12.BM cells was less than 1000 nM in each case.

For the compound `Cc1noc(C)c1-c1ccc2c3c1OCC(c1ccccc1)n3c(=O)n2C` (centres unmarked) [Example 2, 7-(3,5-Dimethylisoxazol-4-yl)-1-methyl-4-phenyl-4,5-dihydroimidazo[1,5,4-de][1,4]benzoxazin-2(1H)-one], the IC50 in the experiment on C-myc in KMS.12.BM cells and in the experiment on KMS.12.BM cells was less than 1000 nM throughout.

Consider `Cc1noc(C)c1-c1cc(CNC(=O)NC(C)C)c2[nH]c(=O)n3c2c1OC[C@@H]3c1ccccn1` [Example 142, N-{[(4S)-7-(3,5-Dimethylisoxazol-4-yl)-2-oxo-4-pyridin-2-yl-1,2,4,5-tetrahydroimidazo[1,5,4-de][1,4]benzoxazin-9-yl]methyl}-N′-isopropylurea], for which the IC50 in the experiment with C-myc in KMS.12.BM cells and with KMS.12.BM cells (KMS-12-BM) was less than 1000 nM throughout.

For `Cc1noc(C)c1-c1ccc2[nH]c(=O)n3c2c1OCC3c1cccnc1CN` (centres unmarked) [Example 130, 4-[2-(Aminomethyl)pyridin-3-yl]-7-(3,5-dimethylisoxazol-4-yl)-4,5-dihydroimidazo[1,5,4-de][1,4]benzoxazin-2(1H)-one bis(trifluoroacetate)], the IC50 with C-myc in KMS.12.BM cells and in the experiment on KMS.12.BM cells was less than 1000 nM throughout.

Turning to `CCNC(=O)c1ncccc1C1COc2c(-c3c(C)noc3C)ccc3[nH]c(=O)n1c23` (single isomer, unassigned) [Example 133, 3-[7-(3,5-dimethylisoxazol-4-yl)-2-oxo-1,2,4,5-tetrahydroimidazo[1,5,4-de][1,4]benzoxazin-4-yl]-N-ethylpyridine-2-carboxamide], the IC50 with C-myc in KMS.12.BM cells and with KMS.12.BM cells was less than 1000 nM in each case.

Take `Cc1noc(C)c1-c1ccc2[nH]c(=O)n3c2c1OCC3c1ccccc1OCC(=O)NCCO` (centres unmarked) [Example 50, 2-{2-[7-(3,5-Dimethylisoxazol-4-yl)-2-oxo-1,2,4,5-tetrahydroimidazo[1,5,4-de][1,4]benzoxazin-4-yl]phenoxy}-N-(2-hydroxyethyl)acetamide]: the concentration for half-maximal inhibition (IC50) in the experiment with C-myc in KMS.12.BM cells and in the experiment on KMS.12.BM cells was less than 1000 nM in each case.

Turning to `Cc1noc(C)c1-c1ccc2nc(C)n3c2c1OCC3c1ccccc1` (centres unmarked) [Example 9, 7-(3,5-Dimethylisoxazol-4-yl)-2-methyl-4-phenyl-4,5-dihydroimidazo[1,5,4-de][1,4]benzoxazine], the half-maximal inhibitory concentration (IC50) in the experiment on C-myc in KMS.12.BM cells and in the experiment with KMS.12.BM cells was less than 1000 nM throughout.

Take `Cc1noc(C)c1-c1ccc2[nH]c(=O)n3c2c1OCC3c1cccnc1` (centres unmarked) [Example 5, 7-(3,5-Dimethylisoxazol-4-yl)-4-pyridin-3-yl-4,5-dihydroimidazo[1,5,4-de][1,4]benzoxazin-2(1H)-one]: the IC50 with C-myc in KMS.12.BM cells and in the experiment with KMS.12.BM cells was less than 1000 nM throughout.

Turning to `CNc1nc2ccc(-c3c(C)noc3C)c3c2n1C(c1ccccc1)CO3` (centres unmarked) [Example 26, 7-(3,5-Dimethylisoxazol-4-yl)-N-methyl-4-phenyl-4,5-dihydroimidazo[1,5,4-de][1,4]benzoxazin-2-amine], the IC50 in the experiment with C-myc in KMS.12.BM cells and with KMS.12.BM cells was less than 1000 nM each time.

Turning to `Cc1noc(C)c1-c1ccc2nc(C3CCNC3)n3c2c1OC[C@@H]3c1ccccn1` (single isomer, unassigned) [Example 106A], the IC50 with C-myc in KMS.12.BM cells is less than 1000 nM.

Consider `Cc1noc(C)c1-c1ccc2[nH]c(=O)n3c2c1CCC3c1ccccn1` (centres unmarked) [Example 123, 7-(3,5-Dimethylisoxazol-4-yl)-4-pyridin-2-yl-5,6-dihydro-4H-imidazo[4,5,1-ij]quinolin-2(1H)-one trifluoroacetate], for which the IC50 in the experiment with KMS.12.BM cells is less than 1000 nM.

Consider `CNc1nc2ccc(-c3c(C)noc3C)c3c2n1C(c1ccccn1)CO3` (centres unmarked) [Example 186, 7-(3,5-dimethylisoxazol-4-yl)-N-methyl-4-pyridin-2-yl-4,5-dihydroimidazo[1,5,4-de][1,4]benzoxazin-2-amine], for which, in the experiment with KMS.12.BM cells, the IC50 is less than 1000 nM.

For `Cc1noc(C)c1-c1cc(F)c2nc(N3CCC(O)C3)n3c2c1OCC3c1cccnc1` (centres unmarked) [Example 157, 1-[7-(3,5-Dimethylisoxazol-4-yl)-9-fluoro-4-pyridin-3-yl-4,5-dihydroimidazo[1,5,4-de][1,4]benzoxazin-2-yl]pyrrolidin-3-ol], the IC50 in the experiment on KMS.12.BM cells is less than 1000 nM.

On to `COCC(=O)N(C)[C@@H]1CCN(c2nc3ccc(-c4c(C)noc4C)c4c3n2[C@@H](c2ccccn2)CO4)C1` [Example 221, N-{(3R)-1-[(4S)-7-(3,5-dimethylisoxazol-4-yl)-4-pyridin-2-yl-4,5-dihydroimidazo[1,5,4-de][1,4]benzoxazin-2-yl]pyrrolidin-3-yl}-2-methoxy-N-methylacetamide], for which, in the experiment with KMS.12.BM cells, the 50% inhibitory concentration (IC50) is less than 1000 nM.

`Cc1noc(C)c1-c1ccc2nc(N3CCCC(O)C3)n3c2c1OCC3c1ccccc1` (centres unmarked) [Example 58, 1-[7-(3,5-Dimethylisoxazol-4-yl)-4-phenyl-4,5-dihydroimidazo[1,5,4-de][1,4]benzoxazin-2-yl]piperidin-3-ol]: in the experiment with KMS.12.BM cells, the half-maximal inhibitory concentration (IC50) is less than 1000 nM.

For the compound `Cc1noc(C)c1-c1ccc2nc(N3CC[C@H](N(C)C)C3)n3c2c1OC[C@@H]3c1ccccn1` [Example 180B, (3S)-1-[(4S)-7-(3,5-dimethylisoxazol-4-yl)-4-pyridin-2-yl-4,5-dihydroimidazo[1,5,4-de][1,4]benzoxazin-2-yl]-N,N-dimethylpyrrolidin-3-amine], the IC50 in the experiment on KMS.12.BM cells is less than 1000 nM.

Consider `CCC(=O)NC1CN(c2nc3ccc(-c4c(C)noc4C)c4c3n2[C@@H](c2ccccn2)CO4)C1` [Example 232, N-{1-[(4S)-7-(3,5-dimethylisoxazol-4-yl)-4-pyridin-2-yl-4,5-dihydroimidazo[1,5,4-de][1,4]benzoxazin-2-yl]azetidin-3-yl}propanamide], for which the IC50 with KMS.12.BM cells was less than 1000 nM.

As to `Cc1noc(C)c1-c1ccc2nc(N3CCOCC3)n3c2c1OCC3c1ccccc1` (centres unmarked) [Example 53, 7-(3,5-Dimethylisoxazol-4-yl)-2-morpholin-4-yl-4-phenyl-4,5-dihydroimidazo[1,5,4-de][1,4]benzoxazine], the IC50 with KMS.12.BM cells is less than 1000 nM.

Turning to `COC(=O)c1ncccc1C1COc2c(-c3c(C)noc3C)ccc3[nH]c(=O)n1c23` (racemic) [Example 132, Methyl 3-[7-(3,5-dimethylisoxazol-4-yl)-2-oxo-1,2,4,5-tetrahydroimidazo[1,5,4-de][1,4]benzoxazin-4-yl]pyridine-2-carboxylate], in the experiment with KMS.12.BM cells, the 50% inhibitory concentration (IC50) is less than 1000 nM.

`Cc1noc(C)c1-c1ccc2nc(C3=CCN(C(=O)OC(C)(C)C)CC3)n3c2c1OC[C@@H]3c1ccccn1` [Example 97, tert-Butyl 4-[(4S)-7-(3,5-dimethylisoxazol-4-yl)-4-pyridin-2-yl-4,5-dihydroimidazo[1,5,4-de][1,4]benzoxazin-2-yl]-3,6-dihydropyridine-1 (2H)-carboxylate]: the IC50 with KMS.12.BM cells is less than 1000 nM.

On to `Cc1noc(C)c1-c1ccc2nc(N3CCOCC3)n3c2c1OC[C@@H]3c1ccccn1` [Example 161, (4S)-7-(3,5-dimethylisoxazol-4-yl)-2-morpholin-4-yl-4-pyridin-2-yl-4,5-dihydroimidazo[1,5,4-de][1,4]benzoxazine], for which the half-inhibitory concentration (IC50) in the experiment on KMS.12.BM cells was less than 1000 nM.

Take `Cc1noc(C)c1-c1ccc2nc(N3CC[C@@H](NC(=O)N4CCOCC4)C3)n3c2c1OC[C@@H]3c1ccccn1` [Example 153, N-{(3R)-1-[(4S)-7-(3,5-Dimethylisoxazol-4-yl)-4-pyridin-2-yl-4,5-dihydroimidazo[1,5,4-de][1,4]benzoxazin-2-yl]pyrrolidin-3-yl}morpholine-4-carboxamide]: in the experiment on KMS.12.BM cells, the half-maximal inhibitory concentration (IC50) is less than 1000 nM.

As to `Cc1noc(C)c1-c1cc(F)c2[nH]c(=O)n3c2c1OCC3c1ccccn1` (centres unmarked) [Example 265B, 7-(3,5-dimethylisoxazol-4-yl)-9-fluoro-4-pyridin-2-yl-4,5-dihydroimidazo[1,5,4-de][1,4]benzoxazin-2(1H)-one], in the experiment with KMS.12.BM cells (KMS-12-BM), the IC50 is less than 1000 nM.

As to `CC(=O)N[C@@H]1CCN(c2nc3ccc(-c4c(C)noc4C)c4c3n2[C@@H](c2ccccn2)CO4)C1` [Example 201A, N-{(3R)-1-[(4S)-7-(3,5-dimethylisoxazol-4-yl)-4-pyridin-2-yl-4,5-dihydroimidazo[1,5,4-de][1,4]benzoxazin-2-yl]pyrrolidin-3-yl}acetamide], the half-maximal inhibitory concentration (IC50) with KMS.12.BM cells was less than 1000 nM.

On to `Cc1noc(C)c1-c1ccc2nc(N3CCC(N(C)C)CC3)n3c2c1OC[C@@H]3c1ccccn1` [Example 171, 1-[(4S)-7-(3,5-dimethylisoxazol-4-yl)-4-pyridin-2-yl-4,5-dihydroimidazo[1,5,4-de][1,4]benzoxazin-2-yl]-N,N-dimethylpiperidin-4-amine], for which, in the experiment with KMS.12.BM cells, the half-inhibitory concentration (IC50) is less than 1000 nM.

As to `Cc1noc(C)c1-c1ccc2nc(N3CCN(C(C)C)CC3)n3c2c1OC[C@@H]3c1ccccn1` [Example 174, (4S)-7-(3,5-dimethylisoxazol-4-yl)-2-(4-isopropylpiperazin-1-yl)-4-pyridin-2-yl-4,5-dihydroimidazo[1,5,4-de][1,4]benzoxazine], in the experiment with KMS.12.BM cells, the IC50 is less than 1000 nM.

Take `Cc1noc(C)c1-c1cc(-c2cccnc2)c2[nH]c(=O)n3c2c1OCC3c1ccccc1` (centres unmarked) [Example 52, 7-(3,5-Dimethylisoxazol-4-yl)-4-phenyl-9-pyridin-3-yl-4,5-dihydroimidazo[1,5,4-de][1,4]benzoxazin-2(1H)-one]: the IC50 in the experiment on KMS.12.BM cells is less than 1000 nM.

What is called IC50 is the point on the concentration scale where inhibition reaches its midpoint.
